Where two headings read alike, the source gives them in different places.
Columns and labels:
[1] = cited from earlier work
[2] = system: NCI-60; conditions: NCI-60 testing; comparators e.g. carboplatin; reported in previous applications WO2019/012149A1; cited from earlier work
[3] = system: NCI-60 cancer cell lines; test: CellMiner gene expression correlated with growth inhibition (%) at 10 μM (mean of NCI 1-dose and 5-dose protocols); type: cell-based, human
From the text: Correlations first found using NCI COMPARE, with the aforementioned method, were then further corroborated using cancer gene expression data sourced from the CellMiner database. Indeed, the following NCI 1-dose and 5-dose anti-cancer data for almitrine dimesylate, with serial codes given that will be used to refer to each hereafter, was compared with cancer gene expression data sourced from CellMiner:
The CellMiner database includes five independent Human Genome gene expression data sets {accession numbers: GSE5949, GSE5720, GSE32474, GSE29682, GSE29288}, each of which can have multiple different transcript sequence probes for a single gene, wherein the mean expression for each gene was taken: within and across the different databases, which is distinct from NCI COMPARE where all expressions of different sequence transcripts for a gene were kept distinct without any averaging, and where there was no averaging across gene expression data sets, each was kept distinct. Although actually only four of these gene expression data sets in CellMiner were used to generate the mean for each gene expression: the single gene expression data set that used an Agilent instead of an Affymetrix microarray chip (GSE29288) was excluded from the mean because, to quote the CellMiner documentation: “Agilent probe(s) values are removed from cell line average intensity calculation due to normalization inconsistency with Affymetrix probesets”. […] So, the data set sourced from an Agilent microarray chip was not incorporated in the mean, but was instead used by itself separately for an independent verification. With much less data, the Agilent set is much less reliable than the mean of the 4 Affymetrix microarray data sets, but it is a nice independent adjudicator. This Agilent data set is not one of the six gene expression data sets at NCI COMPARE. By contrast, there is some overlap in the 4 CellMiner gene expression databases that were used for the mean and the 6 that were used with NCI COMPARE (some might be the same). […] Also, distinctly with the 4 Affymetrix microarray data sets in CellMiner, the mean expression for each gene was taken: averaging the expression of all the different sequence transcripts, across all the 4 used Affymetrix microarray data sets, for each gene. Moreover, this mean is very heavily weighted to a database that CellMiner has, and NCI COMPARE definitely doesn't, Accession number: GSE29682, because it tends to have many more probes for each gene than any other data set, indeed often more than all the others combined, each of which is an additional data point in the mean for each gene. […]

[4] = intravenous 459±155 mg almitrine dimesylate infused within 24 hours [16], cited from earlier work
[5] = target: MYC/Max (Homo sapiens, UniProt P01106); conditions: cited from earlier work
MYC/Max, sequence (P01106 whole entry): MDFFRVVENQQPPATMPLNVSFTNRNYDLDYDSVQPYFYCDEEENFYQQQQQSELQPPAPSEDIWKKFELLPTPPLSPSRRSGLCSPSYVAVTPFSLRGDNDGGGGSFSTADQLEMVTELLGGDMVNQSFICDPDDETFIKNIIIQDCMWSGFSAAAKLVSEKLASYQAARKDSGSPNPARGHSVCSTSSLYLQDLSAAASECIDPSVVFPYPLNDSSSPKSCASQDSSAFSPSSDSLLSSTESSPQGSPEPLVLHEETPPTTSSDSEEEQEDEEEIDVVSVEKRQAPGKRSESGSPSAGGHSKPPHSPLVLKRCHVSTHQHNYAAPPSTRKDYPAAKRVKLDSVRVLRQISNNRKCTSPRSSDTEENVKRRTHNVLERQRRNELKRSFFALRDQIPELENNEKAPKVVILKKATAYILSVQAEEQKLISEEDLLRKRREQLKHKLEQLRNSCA

[6] = system: CML; conditions: cited from earlier work
[7] = reason for not being suitable for in vivo use [18]; cited from earlier work
[8] = system: AML cells; conditions: cited from earlier work
[9] = system: CML; test: Anti-CML activity; type: cell-based; conditions: almitrine (or salt, solvate, hydrate, prodrug) and imatinib/dasatinib/nilotinib/radotinib/bosutinib/ponatinib; anticipated by the teaching of this disclosure

C=CCNc1nc(NCC=C)nc(N2CCN(C(c3ccc(F)cc3)c3ccc(F)cc3)CC2)n1 [almitrine dimesylate]
Side-effects in humans compared with present cancer drugs ([1]; humans): less, close to no, side-effects | Reversibility of side-effects ([1]; if side-effects occur [2]): reversible upon stopping the course in nearly all cases | Side-effects ([1]; patients taking it daily for <11 months): no side-effects in nearly every patient | Side-effects ([1]; patients taking it daily for >11 months to years [2]): side-effects in a very small minority of the many patients | Anti-cancer activity compared with present cancer drugs [2]: greater anti-cancer activity than many present cancer drugs | Anti-cancer activity vs SCAF11 minus RAPH1 gene expression (FIG. 1A bottom panel) ([3]; SCAF11 gene expression minus RAPH1 gene expression, CellMiner data): greater against cancers with greater value of SCAF11 gene expression minus RAPH1 gene expression | Susceptibility to anti-cancer activity vs MYC oncogene expression (FIG. 1C) ([3]; gene MYC, CellMiner data): the more likely it is susceptible | Anti-cancer activity vs RAPH1 gene expression (FIG. 1A middle panel) ([3]; gene RAPH1, CellMiner Affymetrix, Agilent and RNA-seq data): less against cancers with greater gene expression of RAPH1 | Anti-cancer activity vs SCAF11 gene expression (FIG. 1A upper panel) ([3]; gene SCAF11, CellMiner Affymetrix, Agilent and RNA-seq data): greater against cancers with greater gene expression of SCAF11 | Adverse effect ([4]; subjects with normal liver function): without any adverse effect | Blood [lactate] ([4]; subjects with poor/impaired liver function): can potentially increase blood [lactate]

CCc1ccc(/C=C2/SC(=S)NC2=O)cc1 [10058-F4]
MYC/Max heterodimerization [5, 18]: does disrupt MYC/Max heterodimerization | Affinity for target ([5]; target MYC [18]): low affinity for target | Anti-cancer activity in combination ([6]; 10058-F4 and imatinib [26]): synergistic anti-cancer activity | Anti-CML activity [6, 26]: exerts anti-CML activity | Degradation [7]: fast degradation | Drug resistance of leukemic cells ([8]; AML, Myc inhibition [39]): can overcome drug resistance | Differentiation of AML cells [8, 42]: causes AML cells to differentiate | Apoptosis of AML cells ([8]; at higher concentrations [42]): induces their apoptosis

C=CCNc1nc(NCC=C)nc(N2CCN(C(c3ccc(F)cc3)c3ccc(F)cc3)CC2)n1 [almitrine]
Anti-CML activity in combination [9]: synergistic anti-CML activity
